Assay results: patent US20260184675A1, “CHIRAL ISOMERIC SULFITE COMPOUND AND APPLICATION THEREOF” (Chengdu Hanova BioSciences Co., Ltd, priority 2024, published 2026)

Key:
Format in all cases: in vivo
eggs of Thrips = test: Effect on hatching of eggs of Thrips, leaf disc method; conditions: 100 ppm; for Hatching rate (%): 5 days after insecticide delivery
Outline: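 Egg-bearing Vicia faba leaf discs (diameter 2.0 cm, wetted filter paper beneath) were counted microscopically for baseline eggs. They were then soaked for 10 seconds in water or in test agent at 100 ppm. After moist incubation in lidded dishes, with controlled temperature and humidity and adequate indirect light, hatched larvae were counted five days post-delivery to judge hatching inhibition.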

[1] = test system: eggs of Tetranychus urticae; test: Effect on hatching of eggs of Tetranychus urticae, leaf disc method; conditions: 5 ppm; for Hatching rate (%): 5 days after insecticide delivery
Outline: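 This leaf disc test measured inhibition of Tetranychus urticae egg hatching. Eggs laid on Vicia faba discs were counted microscopically, and the discs were soaked for 10 seconds in compound at 5 ppm, with clear water as control. They were incubated under controlled temperature and humidity with strong indirect light, avoiding condensate. Hatched eggs, leaf damage and developmental abnormalities were recorded five days after delivery.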

eggs of Panonychus citri = test: Effect on hatching of eggs of Panonychus citri, leaf disc method; conditions: 1 ppm; for Hatching rate (%), Replicate 1 / Hatching rate (%), Replicate 2 / Hatching rate (%), Replicate 3 / Number of hatched larvae 5 days after insecticide delivery, Replicate 1 / Number of hatched larvae 5 days after insecticide delivery, Replicate 2 / Number of hatched larvae 5 days after insecticide delivery, Replicate 3: Panonychus citri eggs; for Hatching rate (%), Replicate 1 / Hatching rate (%), Replicate 2 / Hatching rate (%), Replicate 3: 5 days after delivery; for Number of hatched larvae 5 days after insecticide delivery, Replicate 1 / Number of hatched larvae 5 days after insecticide delivery, Replicate 2 / Number of hatched larvae 5 days after insecticide delivery, Replicate 3: leaf disc
[2] = test system: eggs of Spodoptera litura; test: Effect on hatching of eggs of Spodoptera litura, egg piece soaking; conditions: 500 ppm; for Hatching rate (%), Replicate 1 / Hatching rate (%), Replicate 2 / Hatching rate (%), Replicate 3 / Number of unhatched larvae 4 days after insecticide delivery, Replicate 1 / Number of unhatched larvae 4 days after insecticide delivery, Replicate 2 / Number of unhatched larvae 4 days after insecticide delivery, Replicate 3: Spodoptera litura eggs; for Hatching rate (%), Replicate 1 / Hatching rate (%), Replicate 2 / Hatching rate (%), Replicate 3: 4 days after delivery; for Number of unhatched larvae 4 days after insecticide delivery, Replicate 1 / Number of unhatched larvae 4 days after insecticide delivery, Replicate 2 / Number of unhatched larvae 4 days after insecticide delivery, Replicate 3: soaked 10 minutes
Outline: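 Egg pieces of about 60 eggs were soaked 10 min in test agent at 500 ppm, blotted, then held singly at 24±1 °C, 80±10% RH, 12:12 L:D. Hatched and unhatched eggs were counted on day 4 to give hatching rate and control effect; 3 replicates.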

[3] = Replicate 1, listed as 19′-(R, R)
[4] = Replicate 2, listed as 19′-(R, R)
[5] = Replicate 1, listed as 1′-(R, R)
[6] = Replicate 2, listed as 1′-(R, R)
[7] = Replicate 3, listed as 1′-(R, R)

CCC(COS(=O)OCCF)Oc1ccc(Cl)cc1Cl [19′-(R,R)]
inhibitory activity on the hatching of eggs of Thrips (in words) (eggs of Thrips): strong inhibitory activities | Hatching rate (%) (eggs of Thrips; [3]): 0.00% | Hatching rate (%) (eggs of Thrips; [4]): 0.00% | Hatching rate (%) (eggs of Thrips; Replicate 3): 0.00% | Number of hatched larvae 5 days after insecticide delivery (eggs of Thrips; [3]): 0 | Number of hatched larvae 5 days after insecticide delivery (eggs of Thrips; [4]): 0 | Number of hatched larvae 5 days after insecticide delivery (eggs of Thrips; Replicate 3): 0 | inhibitory activity on the hatching of eggs of Tetranychus urticae (in words) [1]: strong inhibitory activities | Hatching rate (%) [1, 3]: 0.00% | Hatching rate (%) [1, 4]: 0.00% | Number of hatched larvae 5 days after insecticide delivery [1, 3]: 0 | Number of hatched larvae 5 days after insecticide delivery [1, 4]: 0 | inhibitory effect on the hatching of eggs of Panonychus citri (in words) (eggs of Panonychus citri): good inhibitory effects | Hatching rate (%), Replicate 1 (eggs of Panonychus citri): 0.00% | Hatching rate (%), Replicate 2 (eggs of Panonychus citri): 0.00% | Hatching rate (%), Replicate 3 (eggs of Panonychus citri): 0.00% | Number of hatched larvae 5 days after insecticide delivery, Replicate 1 (eggs of Panonychus citri): 0 | Number of hatched larvae 5 days after insecticide delivery, Replicate 2 (eggs of Panonychus citri): 0 | Number of hatched larvae 5 days after insecticide delivery, Replicate 3 (eggs of Panonychus citri): 0 | inhibitory activity on the hatching of eggs of Spodoptera litura (in words) [2]: good inhibitory activities | Hatching rate (%), Replicate 1 ([2]; listed as 19′-(R, R)): 17.54% | Hatching rate (%), Replicate 2 ([2]; listed as 19′-(R, R)): 16.95% | Hatching rate (%), Replicate 3 ([2]; listed as 19′-(R, R)): 19.12% | Number of unhatched larvae 4 days after insecticide delivery, Replicate 1 ([2]; listed as 19′-(R, R)): 47 | Number of unhatched larvae 4 days after insecticide delivery, Replicate 2 ([2]; listed as 19′-(R, R)): 49 | Number of unhatched larvae 4 days after insecticide delivery, Replicate 3 ([2]; listed as 19′-(R, R)): 55

CC(COc1ccc(Cl)cc1Cl)OS(=O)OCCF [1′-(R,R)]
Hatching rate (%) (eggs of Thrips; [5]): 12.68% | Hatching rate (%) (eggs of Thrips; [6]): 12.79% | Hatching rate (%) (eggs of Thrips; [7]): 14.29% | Number of hatched larvae 5 days after insecticide delivery (eggs of Thrips; [5]): 18 | Number of hatched larvae 5 days after insecticide delivery (eggs of Thrips; [6]): 11 | Number of hatched larvae 5 days after insecticide delivery (eggs of Thrips; [7]): 15 | Hatching rate (%) [1, 5]: 17.91% | Hatching rate (%) [1, 6]: 19.28% | Number of hatched larvae 5 days after insecticide delivery [1, 5]: 12 | Number of hatched larvae 5 days after insecticide delivery [1, 6]: 16 | Hatching rate (%), Replicate 1 (eggs of Panonychus citri; listed as 1′-(R, R)): 8.33% | Hatching rate (%), Replicate 2 (eggs of Panonychus citri; listed as 1′-(R, R)): 7.07% | Hatching rate (%), Replicate 3 (eggs of Panonychus citri; listed as 1′-(R, R)): 5.51% | Number of hatched larvae 5 days after insecticide delivery, Replicate 1 (eggs of Panonychus citri; listed as 1′-(R, R)): 6 | Number of hatched larvae 5 days after insecticide delivery, Replicate 2 (eggs of Panonychus citri; listed as 1′-(R, R)): 7 | Number of hatched larvae 5 days after insecticide delivery, Replicate 3 (eggs of Panonychus citri; listed as 1′-(R, R)): 7 | Hatching rate (%), Replicate 1 ([2]; listed as 1′-(R, R)): 61.82% | Hatching rate (%), Replicate 2 ([2]; listed as 1′-(R, R)): 64.29% | Hatching rate (%), Replicate 3 ([2]; listed as 1′-(R, R)): 62.71% | Number of unhatched larvae 4 days after insecticide delivery, Replicate 1 ([2]; listed as 1′-(R, R)): 21 | Number of unhatched larvae 4 days after insecticide delivery, Replicate 2 ([2]; listed as 1′-(R, R)): 20 | Number of unhatched larvae 4 days after insecticide delivery, Replicate 3 ([2]; listed as 1′-(R, R)): 22

CC(COc1ccc(Cl)cc1Cl)OS(=O)OCCF (stereo not drawn) [Compound 1′]
inhibitory activity on the hatching of eggs of Thrips (in words) (eggs of Thrips): strong inhibitory activities | Hatching rate (%) (eggs of Thrips; Replicate 1): 0.00% | Hatching rate (%) (eggs of Thrips; Replicate 2): 0.00% | Hatching rate (%) (eggs of Thrips; Replicate 3): 0.97% | Number of hatched larvae 5 days after insecticide delivery (eggs of Thrips; Replicate 1): 0 | Number of hatched larvae 5 days after insecticide delivery (eggs of Thrips; Replicate 2): 0 | Number of hatched larvae 5 days after insecticide delivery (eggs of Thrips; Replicate 3): 1 | inhibitory activity on the hatching of eggs of Tetranychus urticae (in words) [1]: strong inhibitory activities | Hatching rate (%) ([1]; Replicate 1): 0.00% | Hatching rate (%) ([1]; Replicate 2): 1.98% | Number of hatched larvae 5 days after insecticide delivery ([1]; Replicate 1): 0 | Number of hatched larvae 5 days after insecticide delivery ([1]; Replicate 2): 2 | inhibitory effect on the hatching of eggs of Panonychus citri (in words) (eggs of Panonychus citri): good inhibitory effects | Hatching rate (%), Replicate 1 (eggs of Panonychus citri): 0.93% | Hatching rate (%), Replicate 2 (eggs of Panonychus citri): 0.00% | Hatching rate (%), Replicate 3 (eggs of Panonychus citri): 0.00% | Number of hatched larvae 5 days after insecticide delivery, Replicate 1 (eggs of Panonychus citri): 1 | Number of hatched larvae 5 days after insecticide delivery, Replicate 2 (eggs of Panonychus citri): 0 | Number of hatched larvae 5 days after insecticide delivery, Replicate 3 (eggs of Panonychus citri): 0 | Hatching rate (%), Replicate 1 [2]: 40.68% | Hatching rate (%), Replicate 2 [2]: 40.32% | Hatching rate (%), Replicate 3 [2]: 39.06% | Number of unhatched larvae 4 days after insecticide delivery, Replicate 1 [2]: 35 | Number of unhatched larvae 4 days after insecticide delivery, Replicate 2 [2]: 37 | Number of unhatched larvae 4 days after insecticide delivery, Replicate 3 [2]: 39

CCC(COS(=O)OCCF)Oc1ccc(Cl)cc1Cl (stereo not drawn) [Compound 19′]
inhibitory activity on the hatching of eggs of Thrips (in words) (eggs of Thrips): strong inhibitory activities | Hatching rate (%) (eggs of Thrips; Replicate 1): 0.95% | Hatching rate (%) (eggs of Thrips; Replicate 2): 1.15% | Hatching rate (%) (eggs of Thrips; Replicate 3): 0.00% | Number of hatched larvae 5 days after insecticide delivery (eggs of Thrips; Replicate 1): 1 | Number of hatched larvae 5 days after insecticide delivery (eggs of Thrips; Replicate 2): 1 | Number of hatched larvae 5 days after insecticide delivery (eggs of Thrips; Replicate 3): 0 | inhibitory activity on the hatching of eggs of Tetranychus urticae (in words) [1]: strong inhibitory activities | Hatching rate (%) ([1]; Replicate 1): 1.14% | Hatching rate (%) ([1]; Replicate 2): 1.92% | Number of hatched larvae 5 days after insecticide delivery ([1]; Replicate 1): 1 | Number of hatched larvae 5 days after insecticide delivery ([1]; Replicate 2): 2 | inhibitory effect on the hatching of eggs of Panonychus citri (in words) (eggs of Panonychus citri): good inhibitory effects | Hatching rate (%), Replicate 1 (eggs of Panonychus citri): 0.00% | Hatching rate (%), Replicate 2 (eggs of Panonychus citri): 0.00% | Hatching rate (%), Replicate 3 (eggs of Panonychus citri): 0.00% | Number of hatched larvae 5 days after insecticide delivery, Replicate 1 (eggs of Panonychus citri): 0 | Number of hatched larvae 5 days after insecticide delivery, Replicate 2 (eggs of Panonychus citri): 0 | Number of hatched larvae 5 days after insecticide delivery, Replicate 3 (eggs of Panonychus citri): 0 | Hatching rate (%), Replicate 1 [2]: 32.76% | Hatching rate (%), Replicate 2 [2]: 32.14% | Hatching rate (%), Replicate 3 [2]: 35.94% | Number of unhatched larvae 4 days after insecticide delivery, Replicate 1 [2]: 39 | Number of unhatched larvae 4 days after insecticide delivery, Replicate 2 [2]: 38 | Number of unhatched larvae 4 days after insecticide delivery, Replicate 3 [2]: 41

CC(C)(COc1ccc(Cl)cc1Cl)OS(=O)OCCF (stereo not drawn) [Compound 10]
inhibitory activity on the hatching of eggs of Thrips (in words) (eggs of Thrips): strong inhibitory activities | Hatching rate (%) (eggs of Thrips; Replicate 1): 0.99% | Hatching rate (%) (eggs of Thrips; Replicate 2): 0.00% | Hatching rate (%) (eggs of Thrips; Replicate 3): 0.00% | Number of hatched larvae 5 days after insecticide delivery (eggs of Thrips; Replicate 1): 1 | Number of hatched larvae 5 days after insecticide delivery (eggs of Thrips; Replicate 2): 0 | Number of hatched larvae 5 days after insecticide delivery (eggs of Thrips; Replicate 3): 0 | inhibitory activity on the hatching of eggs of Tetranychus urticae (in words) [1]: strong inhibitory activities | Hatching rate (%) ([1]; Replicate 1): 1.94% | Hatching rate (%) ([1]; Replicate 2): 1.35% | Number of hatched larvae 5 days after insecticide delivery ([1]; Replicate 1): 2 | Number of hatched larvae 5 days after insecticide delivery ([1]; Replicate 2): 1 | inhibitory effect on the hatching of eggs of Panonychus citri (in words) (eggs of Panonychus citri): good inhibitory effects | Hatching rate (%), Replicate 1 (eggs of Panonychus citri): 1.01% | Hatching rate (%), Replicate 2 (eggs of Panonychus citri): 0.00% | Hatching rate (%), Replicate 3 (eggs of Panonychus citri): 0.00% | Number of hatched larvae 5 days after insecticide delivery, Replicate 1 (eggs of Panonychus citri): 1 | Number of hatched larvae 5 days after insecticide delivery, Replicate 2 (eggs of Panonychus citri): 0 | Number of hatched larvae 5 days after insecticide delivery, Replicate 3 (eggs of Panonychus citri): 0 | Hatching rate (%), Replicate 1 [2]: 41.27% | Hatching rate (%), Replicate 2 [2]: 40.98% | Hatching rate (%), Replicate 3 [2]: 42.11% | Number of unhatched larvae 4 days after insecticide delivery, Replicate 1 [2]: 37 | Number of unhatched larvae 4 days after insecticide delivery, Replicate 2 [2]: 36 | Number of unhatched larvae 4 days after insecticide delivery, Replicate 3 [2]: 33
